Laboratory results published in patent US20230270809A1, “VETERINARY COMPOSITIONS FOR THE TREATMENT AND/OR PREVENTION OF PROTOZOAN DISEASES AND METHODS OF PREPARATION THEREOF” (ADIFEED SP. Z O. O., priority 2020, published 2023).

Key:
[1] = system: Gregarina blattarum; test: in vitro protozoicidal test on gregarines isolated from cockroaches; type: cell-based; settings: Ringer's solution; for LD100: lethal concentration for 100% of individuals within 3 minutes
Source text: For in vitro tests of antiprotozoal activity of the composition five reference organisms representing taxonomic groups to which pathogenic protozoa belong were selected, i.e: • Amoeba proteus—Chaos diffluens—a protozoan of the order Euamoebida, belonging to fifth supergroup of the Amoebozoa, living in waters. • Paramecium caudatum—a slipper animalcule representing the Ciliata orachs, living in waters. • Gregarina blattarum—gregarine isolated from cockroaches, representing the phylum Apicomplexa, living in the digestive tracts or body cavities of invertebrates. • Euglena gracilis—a protozoan living in water, representing the flagellates—Mastigophora, family Euglenaceae. • Trichomonas hominis—a protozoan living in the human colon, representing the Trichomonadidae.
The gregarines were isolated from the cockroaches and, after being placed on a watch slide, were treated with the products at different concentrations in Ringer's solution. Each sample contained ten individuals.
The compositions, negative controls, and positive controls were dissolved in an aqueous solution of polysorbate 80 (0.05%) before application to a watch slide.
Compositions I and II were then analysed for their antiprotozoal properties. […]
Individual acids, catalyst solution, essential oil and metal salt solutions were also analysed for protozoal properties. […] Observation under a fluorescence microscope with phase contrast was carried out.

[2] = system: Amoeba proteus; test: in vitro protozoicidal test on Amoeba proteus (watch glass, microscope); type: cell-based; settings: in aqueous polysorbate 80 (0.05%); for LD100: concentration giving death of 100% of individuals within 3 minutes
[3] = system: Trichomonas hominis; test: in vitro protozoicidal test on Trichomonas hominis (watch glass, microscope); type: cell-based; settings: in aqueous polysorbate 80 (0.05%); for LD100: concentration giving death of 100% of individuals within 3 minutes
[4] = system: Trypanosoma cruzi and Leishmania chagasi; settings: Escobar et al. 2010; cited from earlier work
[5] = system: Trypanosoma cruzi; settings: read-out: inhibitory effect on 50% of the population (IC50), Becco et al. 2012; cited from earlier work
[6] = system: Paramecium caudatum; test: in vitro protozoicidal test on Paramecium caudatum (watch glass, microscope); type: cell-based; settings: concentration giving death of 100% of individuals within 3 minutes, in aqueous polysorbate 80 (0.05%)
[7] = system: Euglena gracilis; test: in vitro protozoicidal test on Euglena gracilis (watch glass, microscope); type: cell-based; settings: concentration giving death of 100% of individuals within 3 minutes, in aqueous polysorbate 80 (0.05%)
[8] = concentration giving death of 50% of individuals within 3 minutes

| Compound | LD50 ([1]; lethal concentration for 50% of individuals within 3 minutes) | LD100 [1] | LD50 [2, 8] | LD100 [2] | LD50 [3, 8] | LD100 [3] | IC50 [4] | IC50 [5] | LD100 [6] | LD100 [7] |
| --- | --- | --- | --- | --- | --- | --- | --- | --- | --- | --- |
| Cc1ncc([N+](=O)[O-])n1CCO [M, metronidazole, reference compound] | 0.13% | 0.3% | 0.3% | 0.5% | 0.05% | 0.1% | – | – | – | – |
| CC1CS(=O)(=O)CCN1/N=C/c1ccc([N+](=O)[O-])o1 (stereo not shown) [Nifurtimox] | – | – | – | – | – | – | 0.3 to 0.4 µg/mL | 6 µM | – | – |
| copper carbonate [Copper carbonate solution] | – | – | – | – | – | 0.3% | – | – | 0.5% | 0.25% |
| zinc carbonate [Zinc carbonate solution] | – | 0.4% | – | 0.25% | – | 0.4% | – | – | 0.5% | 0.3% |
